Experimental data published in patent US12157730B2, “Heteroaryl derivative, method for producing same, and pharmaceutical composition comprising same as effective component” (VORONOI INC., priority 2019, dated 2024).

The compounds below were run against T1, Ba/F3 cell EGFR Exon20 ins NPH (Homo sapiens, UniProt P00533, INS773NPH) (assay: Ba/F3 cell proliferation suppression, EGFR Exon20 ins NPH). Conditions: GI50 class; Ba/F3 cell line with NPH inserted at Exon20 of EGFR; 72 hours.
T1 construct: expressed in transfected cells; host or cells: Ba/F3
Format: cell-based
Summary of the method: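 72 h compound exposure, 0.3 nM–50 um (12 points, 3:1 dilution in DMSO); viability by CellTiter-Glo luminescence. Ba/F3 medium: RPMI-1640, 10% FBS, 5 ng/ml IL-3, 1 ug/ml puromycin for transduced cells. GI50 vs control, n=3.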

Compound	Ba/F3 (NPH) Activity
C=CC(=O)Nc1cc(Nc2cc(N3OCC[C@@H]3c3cccc(Cl)c3)ncn2)c(OC)cc1N1CCC(N2CC[C@@H](N(C)C)C2)CC1 [compound 413, N-(5-((6-((R)-3-(3-chlorophenyl)isoxazolidine-2-yl)pyrimidine-4-yl)amino)-2-(4-((R)-3-(dimethylamino)pyrolidine-1-yl)piperidine-1-yl)-4-methoxyphenyl) acrylamide]	A (GI50 < 50 nM)
C#Cc1cccc([C@H]2CCON2c2cc(Nc3cc(NC(=O)C=C)c(N4CCC(N5C[C@H]6C[C@@H]5CO6)CC4)cc3OC)ncn2)c1 [compound 619, N-(2-(4-((1R,4R)-2-oxa-5-azabicyclo [2.2.1]heptane-5-yl)piperidine-1-yl)-5-((6-((R)-3-(3-ethynylphenyl)isoxazolidine-2-yl)pyrimidine-4-yl)amino)-4-methoxyphenyl) acrylamide]	A (GI50 < 50 nM)
C=CC(=O)Nc1cc(Nc2cc(N3OCC[C@]3(C)c3ccccc3)ncn2)c(OC)cc1N1CCC(N2C[C@H]3C[C@@H]2CO3)CC1 [Example 270, N-(2-(4-((1R,4R)-2-oxa-5-azabicyclo[2.2.1]heptane-5-yl)piperidine-1-yl)-4-methoxy-5-((6-((R)-3-methyl-3-phenylisoxazolidine-2-yl)pyrimidine-4-yl)amino)phenyl) acrylamide]	B (50 nM ≤ GI50 < 500 nM)
C=CC(=O)Nc1cc(Nc2cc(N3OCC[C@@H]3c3cccc(Cl)c3C)ncn2)c(OC)cc1N1CCC(N2CCC(F)(F)CC2)CC1 [compound 581, N-(5-((6-((R)-3-(3-chloro-2-methylphenyl)isoxazolidine-2-yl)pyrimidine-4-yl)amino)-2-(4,4-difluoro-[1,4'-bipiperidine]-1'-yl)-4-methoxyphenyl) acrylamide]	A (GI50 < 50 nM)
C=CC(=O)Nc1cc(Nc2cc(N3OCC[C@@H]3c3cccc(F)c3Cl)ncn2)c(OC)cc1N1CCC(N2C[C@@H]3CCN(C)[C@@H]3C2)CC1 [compound 448, N-(5-((6-((R)-3-(2-chloro-3-fluorophenyl)isoxazolidine-2-yl)pyrimidine-4-yl)amino)-4-methoxy-2-(4-((3aS,6aS)-1-methylhexahydropyrrolo [3,4-b]pyrrole-5(1H)-yl)piperidine-1-yl)phenyl)acrylamide]	A (GI50 < 50 nM)
C=CC(=O)Nc1cc(Nc2cc(N3OCC[C@@H]3c3cccc(F)c3Cl)ncn2)c(OC)cc1N1CC[C@@H](N(C)C)C1 [compound 558, N-(5-((6-((R)-3-(2-chloro-3-fluorophenyl)isoxazolidine-2-yl)pyrimidine-4-yl)amino)-2-((R)-3-(dimethylamino)pyrolidine-1-yl)-4-methoxyphenyl) acrylamide]	A (GI50 < 50 nM)
C=CC(=O)Nc1cc(Nc2cc(N3OCC[C@@H]3c3ccc(F)cc3F)ncn2)c(OC)cc1N1CCC(N2C[C@H]3C[C@@H]2CN3C)CC1 [compound 473, N-(5-((6-((R)-3-(2,4-difluorophenyl)isoxazolidine-2-yl)pyrimidine-4-yl)amino)-4-methoxy-2-(4-((1R,4R)-5-methyl-2,5-diazabicyclo[2.2.1]heptane-2-yl)piperidine-1-yl)phenyl)acrylamide]	A (GI50 < 50 nM)
C=CC(=O)Nc1cc(Nc2cc(N3OCC[C@@H]3c3cccc(Cl)c3C)ncn2)c(OC)cc1N1CCC(N2CCN(C3CC3)[C@H](C)C2)CC1 [Example 152, N-(5-((6-((R)-3-(3-chloro-2-methylphenyl)isoxazolidine-2-yl)pyrimidine-4-yl)amino)-2-(4-((R)-4-cyclopropyl-3-methylpiperazine-1-yl)piperidine-1-yl)-4-methoxyphenyl) acrylamide]	A (GI50 < 50 nM)
C=CC(=O)Nc1cc(Nc2cc(N3OCC[C@@H]3c3cccc(C)c3F)ncn2)c(OC)cc1N1CCC(N2CCN(C(C)=O)CC2)CC1 [compound 421, N-(2-(4-(4-acetylpiperazine-1-yl)piperidine-1-yl)-5-((6-((R)-3-(2-fluoro-3-methylphenyl)isoxazolidine-2-yl)pyrimidine-4-yl)amino)-4-methoxyphenyl) acrylamide]	A (GI50 < 50 nM)
C=CC(=O)Nc1cc(Nc2cc(N3OCC[C@@H]3c3ccc(Cl)cc3F)ncn2)c(OC)cc1N1CCC(N2CC[C@@H](N(C)C)C2)CC1 [compound 404, N-(5-((6-((R)-3-(4-chloro-2-fluorophenyl)isoxazolidine-2-yl)pyrimidine-4-yl)amino)-2-(4-((R)-3-(dimethylamino)pyrolidine-1-yl)piperidine-1-yl)-4-methoxyphenyl) acrylamide]	B (50 nM ≤ GI50 < 500 nM)

The next lines start with the values.

Ba/F3 (NPH) Activity	Compound
A (GI50 < 50 nM)	C=CC(=O)Nc1cc(Nc2cc(N3OCC[C@@H]3c3cccc(F)c3F)ncn2)c(OC)cc1N1CCO[C@@H](C)C1 [compound 888, N-(5-((6-((R)-3-(2,3-difluorophenyl)isoxazolidine-2-yl)pyrimidine-4-yl)amino)-4-methoxy-2-((S)-2-methylmorpholino)phenyl)acrylamide]
B (50 nM ≤ GI50 < 500 nM)	C=CC(=O)Nc1cc(Nc2cc(N3OCC[C@H]3Cc3cccnc3)ncn2)c(OC)cc1N1CCC(N2C[C@@H]3C[C@H]2CO3)CC1 [compound 989, N-(2-(4-((1S,4S)-2-oxa-5-azabicyclo [2.2.1]heptane-5-yl)piperidine-1-yl)-4-methoxy-5-((6-((R)-3-(pyridine-3-ylmethyl)isoxazolidine-2-yl)pyrimidine-4-yl)amino)phenyl)acrylamide]
A (GI50 < 50 nM)	C=CC(=O)Nc1cc(Nc2cc(N3OCC[C@@H]3Cc3cccc(F)c3C)ncn2)c(OC)cc1N1CCN(C2CC2)CC1 [compound 1038, N-(2-(4-cyclopropylpiperazine-1-yl)-5-((6-((S)-3-(3-fluoro-2-methylbenzyl)isoxazolidine-2-yl)pyrimidine-4-yl)amino)-4-methoxyphenyl) acrylamide]
A (GI50 < 50 nM)	C=CC(=O)Nc1cc(Nc2cc(N3OCC[C@@H]3c3ccc(F)cc3)ncn2)c(OC)cc1N1CCC(N2CC[C@@H](N(C)C)C2)CC1 [compound 810, N-(2-(4-((R)-3-(dimethylamino)pyrolidine-1-yl)piperidine-1-yl)-5-((6-((R)-3-(4-fluorophenyl)isoxazolidine-2-yl)pyrimidine-4-yl)amino)-4-methoxyphenyl) acrylamide]
B (50 nM ≤ GI50 < 500 nM)	C=CC(=O)Nc1cc(Nc2cc(N3OCC[C@H]3c3c(F)ccc(F)c3F)ncn2)c(OC)cc1N1CCC(N2CCN(C3CC3)CC2)CC1 [compound 937, N-(2-(4-(4-cyclopropylpiperazine-1-yl)piperidine-1-yl)-4-methoxy-5-((6-((S)-3-(2,3,6-trifluorophenyl)isoxazolidine-2-yl)pyrimidine-4-yl)amino)phenyl)acrylamide]
A (GI50 < 50 nM)	C=CC(=O)Nc1cc(Nc2cc(N3OCC[C@@H]3c3cc(F)ccc3F)ncn2)c(OC)cc1N1CC[C@@H](N(C)C)C1 [compound 848, N-(5-((6-(2,5-((R)-3-difluorophenyl)isoxazolidine-2-yl)pyrimidine-4-yl)amino)-2-((R)-3-(dimethylamino)pyrolidine-1-yl)-4-methoxyphenyl) acrylamide]
